Results from patent US7750028B2, “Crystal modifications of 1-(2,6-difluorobenzyl)-1H-1, 2,3-triazole-4-carboxamide” (Novartis AG, priority 1997, dated 2010).

Columns and labels:
Type in all cases: physicochemical
[1] = thermodynamic investigations (thermomicroscopy, X-ray powder diffractometry, DSC, solubility tests) of crystal modifications; settings: for thermodynamic stability: comparison of the crystal modifications A/A′, B and C
Description: The modification A or A′ has significant advantages compared with the modification B and compared with the modification C.

[2] = dissolution rate in gastric fluid; settings: comparison between modifications
[3] = dissolution rate in water; settings: comparison between modifications

Row | dissolution rate [2] | dissolution rate [3] | conversion of the crystals into modification B ([1]; at as low as room temperature) | SMILES | thermodynamic stability [1] | thermodynamic stability ([1]; listed as A′) | thermodynamic stability ([1]; listed as Modification C) | conversion into other modifications ([1]; depending on experimental conditions)
1 | slower dissolution rate | slower dissolution rate |  | NC(=O)c1cn(Cc2c(F)cccc2F)nn1 [modification A, 1-(2,6-difluorobenzyl)-1H-1,2,3-triazole-4-carboxamide] | substantially better thermodynamic stability than the modifications B and C |  |  | 
2 | slower dissolution rate | slower dissolution rate |  | NC(=O)c1cn(Cc2c(F)cccc2F)nn1 [modification A′, 1-(2,6-difluorobenzyl)-1H-1,2,3-triazole-4-carboxamide] |  | substantially better thermodynamic stability than the modifications B and C |  | 
3 | substantially faster dissolution rate | substantially faster dissolution rate |  | NC(=O)c1cn(Cc2c(F)cccc2F)nn1 [modification B, 1-(2,6-difluorobenzyl)-1H-1,2,3-triazole-4-carboxamide] |  |  |  | 
4 |  |  | within a few weeks | NC(=O)c1cn(Cc2c(F)cccc2F)nn1 [modification C, 1-(2,6-difluorobenzyl)-1H-1,2,3-triazole-4-carboxamide] |  |  | the least stable of the three modifications | converted either into the modification A or A′ or into the modification B
